Experimental data taken from ChEMBL document CHEMBL1132537, “A series of 6- and 7-piperazinyl- and -piperidinylmethylbenzoxazinones with dopamine D4 antagonist activity: discovery of a potential atypical antipsychotic agent” (J Med Chem, 1999).

How the values were obtained:
Rattus norvegicus [1] = assay: Effect on Dopamine synthesis in rat Hippocampus(HI), measured as accumulation of DOPA(L-3,4-dihydroxyphenylalanine) at a peroral dose of 30 mg/kg; assay type: functional; settings: route oral
Rattus norvegicus [2] = assay: Effect on Dopamine synthesis in rat Striatum(ST), measured as accumulation of DOPA(L-3,4-dihydroxyphenylalanine) at a peroral dose of 30 mg/kg; assay type: functional; settings: route oral
D(3) dopamine receptor = D(3) dopamine receptor (Homo sapiens, UniProt P35462); assay: biochemical
Description: Binding affinity at Dopamine receptor D3 in CHO cells by radioligand displacement.

D(4) dopamine receptor = biological target: T1, D(4) dopamine receptor (Homo sapiens, UniProt P21917); assay: biochemical
T1 sequence (P21917 whole entry): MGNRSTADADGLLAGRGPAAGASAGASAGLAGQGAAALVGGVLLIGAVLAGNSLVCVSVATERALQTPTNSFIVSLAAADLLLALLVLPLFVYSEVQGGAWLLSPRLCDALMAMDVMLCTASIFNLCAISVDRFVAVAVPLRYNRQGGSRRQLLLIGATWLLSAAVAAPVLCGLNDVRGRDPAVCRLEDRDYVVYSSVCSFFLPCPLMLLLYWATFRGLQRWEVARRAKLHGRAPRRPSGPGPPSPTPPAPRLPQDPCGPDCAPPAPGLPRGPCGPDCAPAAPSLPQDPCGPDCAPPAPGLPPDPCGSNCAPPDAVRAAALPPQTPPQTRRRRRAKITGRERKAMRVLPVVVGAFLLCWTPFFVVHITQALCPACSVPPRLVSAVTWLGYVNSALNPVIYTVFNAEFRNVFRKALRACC
Description: Binding affinity at Dopamine receptor D4 in CHO cells by radioligand displacement.

Rattus norvegicus [3] = assay: Effect on Dopamine synthesis in rat Hippocampus(HI), measured as accumulation of DOPA(L-3,4-dihydroxyphenylalanine) at a peroral dose of 10 mg/kg; assay type: functional; settings: route oral
Rattus norvegicus [4] = assay: Effect on Dopamine synthesis in rat Striatum(ST), measured as accumulation of DOPA(L-3,4-dihydroxyphenylalanine) at a peroral dose of 10 mg/kg; assay type: functional; settings: route oral
Rattus norvegicus [5] = assay: Effect on Dopamine synthesis in rat Hippocampus(HI), measured as accumulation of DOPA(L-3,4-dihydroxyphenylalanine) at a peroral dose of 20 mg/kg; assay type: functional; settings: route oral
Rattus norvegicus [6] = assay: Effect on Dopamine synthesis in rat Striatum(ST), measured as accumulation of DOPA(L-3,4-dihydroxyphenylalanine) at a peroral dose of 20 mg/kg; assay type: functional; settings: route oral
D(2) dopamine receptor = D(2) dopamine receptor (Homo sapiens, UniProt P14416); assay: Binding affinity at Dopamine receptor D2 in CHO cells by radioligand displacement.; assay type: cell-based
[7] = biological target: T2, 5-hydroxytryptamine receptor 1A (Homo sapiens, UniProt P08908); assay: Inhibition of [3H]- […] binding against human recombinant 5-hydroxytryptamine 1A receptor
T2 sequence (P08908 whole entry): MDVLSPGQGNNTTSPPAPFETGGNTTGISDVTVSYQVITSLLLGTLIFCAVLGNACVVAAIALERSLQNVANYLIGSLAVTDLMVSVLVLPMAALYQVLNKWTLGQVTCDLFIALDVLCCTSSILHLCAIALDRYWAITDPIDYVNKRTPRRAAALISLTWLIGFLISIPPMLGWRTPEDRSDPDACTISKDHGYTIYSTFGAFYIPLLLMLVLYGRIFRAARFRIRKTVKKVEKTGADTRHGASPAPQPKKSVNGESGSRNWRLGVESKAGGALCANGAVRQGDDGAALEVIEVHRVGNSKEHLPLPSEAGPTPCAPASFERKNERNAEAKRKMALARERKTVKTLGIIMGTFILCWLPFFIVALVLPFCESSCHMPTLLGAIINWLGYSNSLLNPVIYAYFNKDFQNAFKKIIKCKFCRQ

[8] = biological target: Serotonin 2 (5-HT2) receptor (Rattus norvegicus, UniProt P30994+P08909+P14842); assay: Inhibition of [3H]- Ketanserin binding against rat brain 5-hydroxytryptamine 2 receptor
[9] = biological target: T3, Alpha-1A adrenergic receptor (Rattus norvegicus, UniProt P43140); assay: Inhibition of [3H]- prazosin binding against Alpha-1A adrenergic receptor from rat submaxillary gland
T3 sequence (P43140 whole entry): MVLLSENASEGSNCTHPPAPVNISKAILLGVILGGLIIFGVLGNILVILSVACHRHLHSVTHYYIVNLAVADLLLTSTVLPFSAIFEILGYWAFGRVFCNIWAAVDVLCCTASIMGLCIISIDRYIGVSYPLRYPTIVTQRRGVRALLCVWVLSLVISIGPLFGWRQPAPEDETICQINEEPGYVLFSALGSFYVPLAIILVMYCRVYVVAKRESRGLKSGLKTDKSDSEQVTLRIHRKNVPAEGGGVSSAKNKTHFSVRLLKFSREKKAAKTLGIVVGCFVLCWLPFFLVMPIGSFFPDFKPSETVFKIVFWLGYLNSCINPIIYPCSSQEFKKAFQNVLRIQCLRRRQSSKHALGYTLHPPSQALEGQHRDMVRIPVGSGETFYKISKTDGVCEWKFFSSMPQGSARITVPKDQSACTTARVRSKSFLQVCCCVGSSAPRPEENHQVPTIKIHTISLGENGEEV

[10] = biological target: T4, Alpha-1B adrenergic receptor (Rattus norvegicus, UniProt P15823); assay: Inhibition of [3H]- prazosin binding against Alpha-1B adrenergic receptor from rat liver
T4 sequence (P15823 whole entry): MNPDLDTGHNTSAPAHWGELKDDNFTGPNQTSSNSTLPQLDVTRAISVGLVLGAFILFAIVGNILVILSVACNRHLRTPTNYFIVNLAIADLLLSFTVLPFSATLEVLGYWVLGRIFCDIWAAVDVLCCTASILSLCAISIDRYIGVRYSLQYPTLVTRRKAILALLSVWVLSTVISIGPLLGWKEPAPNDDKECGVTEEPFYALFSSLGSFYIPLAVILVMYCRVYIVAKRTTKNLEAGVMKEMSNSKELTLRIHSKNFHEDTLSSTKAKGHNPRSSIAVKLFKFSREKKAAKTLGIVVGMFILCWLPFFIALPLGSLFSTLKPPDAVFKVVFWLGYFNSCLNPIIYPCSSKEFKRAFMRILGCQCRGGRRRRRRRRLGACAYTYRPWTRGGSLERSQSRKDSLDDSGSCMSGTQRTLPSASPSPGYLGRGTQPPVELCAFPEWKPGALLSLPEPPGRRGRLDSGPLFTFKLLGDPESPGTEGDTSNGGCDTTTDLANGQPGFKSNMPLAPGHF

[11] = biological target: T5, Alpha-2A adrenergic receptor (Homo sapiens, UniProt P08913); assay: Inhibition of [3H]- MK-912 binding against human recombinant Alpha-2A adrenergic receptor
T5 sequence (P08913 whole entry): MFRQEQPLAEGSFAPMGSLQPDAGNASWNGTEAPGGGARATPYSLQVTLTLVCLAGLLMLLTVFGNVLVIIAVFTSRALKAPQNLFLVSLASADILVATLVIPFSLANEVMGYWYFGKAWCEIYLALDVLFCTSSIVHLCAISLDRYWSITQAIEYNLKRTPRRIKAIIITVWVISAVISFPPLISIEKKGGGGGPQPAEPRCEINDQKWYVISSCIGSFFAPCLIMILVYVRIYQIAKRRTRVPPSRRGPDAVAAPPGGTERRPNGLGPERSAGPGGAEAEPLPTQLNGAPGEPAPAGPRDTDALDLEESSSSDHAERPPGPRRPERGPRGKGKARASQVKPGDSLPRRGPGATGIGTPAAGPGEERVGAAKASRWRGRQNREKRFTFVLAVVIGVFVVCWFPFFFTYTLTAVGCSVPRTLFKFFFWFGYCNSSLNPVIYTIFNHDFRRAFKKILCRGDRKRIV

[12] = biological target: T6, Muscarinic acetylcholine receptor M5 (Homo sapiens, UniProt P08912); assay: Inhibition of [3H]- NMS binding against human recombinant Muscarinic acetylcholine receptor M5
T6 sequence (P08912 whole entry): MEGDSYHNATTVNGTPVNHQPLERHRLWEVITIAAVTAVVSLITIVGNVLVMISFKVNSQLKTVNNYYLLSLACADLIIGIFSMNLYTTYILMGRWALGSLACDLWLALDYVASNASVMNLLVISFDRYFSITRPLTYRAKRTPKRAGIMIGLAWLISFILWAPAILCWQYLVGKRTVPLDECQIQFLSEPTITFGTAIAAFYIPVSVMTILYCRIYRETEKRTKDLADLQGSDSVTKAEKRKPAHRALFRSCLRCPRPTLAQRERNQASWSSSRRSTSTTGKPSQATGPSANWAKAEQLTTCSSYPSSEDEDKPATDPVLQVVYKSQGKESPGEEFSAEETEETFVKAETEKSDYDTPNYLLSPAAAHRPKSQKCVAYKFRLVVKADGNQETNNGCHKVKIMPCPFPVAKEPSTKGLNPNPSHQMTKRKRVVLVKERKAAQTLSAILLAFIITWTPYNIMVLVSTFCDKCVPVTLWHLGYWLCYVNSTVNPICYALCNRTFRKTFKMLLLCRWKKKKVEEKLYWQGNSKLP

[13] = biological target: Sigma intracellular receptor 2 (Rattus norvegicus, UniProt Q5U3Y7); assay: Inhibition of [3H]- Ifenprodil binding against rat brain Sigma opioid receptor type 2
[14] = biological target: T7, Alpha-2B adrenergic receptor (Rattus norvegicus, UniProt P19328); assay: Inhibition of [3H]- Yohimbine binding against rat kidney cortex Alpha-2B adrenergic receptor
T7 sequence (P19328 whole entry): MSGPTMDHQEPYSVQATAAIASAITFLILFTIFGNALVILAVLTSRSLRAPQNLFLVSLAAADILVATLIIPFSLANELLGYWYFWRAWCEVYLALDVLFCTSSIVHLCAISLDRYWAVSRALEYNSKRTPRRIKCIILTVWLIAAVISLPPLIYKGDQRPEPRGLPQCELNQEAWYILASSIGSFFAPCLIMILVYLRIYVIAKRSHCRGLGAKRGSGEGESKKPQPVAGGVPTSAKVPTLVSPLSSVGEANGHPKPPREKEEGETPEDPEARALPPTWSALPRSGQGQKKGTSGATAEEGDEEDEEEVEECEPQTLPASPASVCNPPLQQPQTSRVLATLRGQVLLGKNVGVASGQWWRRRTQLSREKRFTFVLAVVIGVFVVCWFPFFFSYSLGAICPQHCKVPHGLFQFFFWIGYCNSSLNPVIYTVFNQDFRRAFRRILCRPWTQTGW

D(3) dopamine receptor, sequence (P35462 whole entry): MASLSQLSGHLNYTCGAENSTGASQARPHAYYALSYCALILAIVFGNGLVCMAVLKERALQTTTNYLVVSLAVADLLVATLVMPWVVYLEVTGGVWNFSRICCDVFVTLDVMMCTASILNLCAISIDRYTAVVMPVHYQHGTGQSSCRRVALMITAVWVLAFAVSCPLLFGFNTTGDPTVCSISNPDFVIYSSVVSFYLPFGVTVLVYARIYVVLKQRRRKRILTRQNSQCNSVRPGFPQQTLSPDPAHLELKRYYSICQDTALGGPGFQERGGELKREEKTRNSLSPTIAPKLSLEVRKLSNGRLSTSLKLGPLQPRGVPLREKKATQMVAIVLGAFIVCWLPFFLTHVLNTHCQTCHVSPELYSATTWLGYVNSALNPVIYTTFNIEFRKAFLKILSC
D(2) dopamine receptor, sequence (P14416 whole entry): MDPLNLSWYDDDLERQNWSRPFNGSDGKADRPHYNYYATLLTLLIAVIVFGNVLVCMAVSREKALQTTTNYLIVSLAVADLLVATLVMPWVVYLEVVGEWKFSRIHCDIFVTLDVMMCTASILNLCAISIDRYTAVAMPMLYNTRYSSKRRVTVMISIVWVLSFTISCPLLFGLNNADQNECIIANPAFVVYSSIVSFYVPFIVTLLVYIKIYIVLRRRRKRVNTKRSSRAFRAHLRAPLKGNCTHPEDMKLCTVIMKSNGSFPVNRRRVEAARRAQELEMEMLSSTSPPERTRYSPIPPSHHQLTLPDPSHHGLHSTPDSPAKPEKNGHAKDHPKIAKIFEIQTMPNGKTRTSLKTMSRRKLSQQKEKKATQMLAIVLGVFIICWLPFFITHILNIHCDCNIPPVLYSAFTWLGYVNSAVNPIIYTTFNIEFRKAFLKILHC
Sigma intracellular receptor 2, sequence (Q5U3Y7 whole entry, looked up): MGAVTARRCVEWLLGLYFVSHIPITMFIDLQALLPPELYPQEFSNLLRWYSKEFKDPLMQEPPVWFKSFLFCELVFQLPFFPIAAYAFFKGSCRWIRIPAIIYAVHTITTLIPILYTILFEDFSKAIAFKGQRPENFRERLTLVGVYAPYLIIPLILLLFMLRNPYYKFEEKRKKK

Compound | Ki (D(3) dopamine receptor) | Ki (D(4) dopamine receptor) | Change (Rattus norvegicus [3]) | Change (Rattus norvegicus [4]) | other results
COc1ccc(C2CCN(Cc3ccc4c(c3)NC(=O)CO4)CC2)cc1 | > 3030 nM |  |  |  | Change (Rattus norvegicus [1]): 93%; Change (Rattus norvegicus [2]): 96%
O=C1COc2ccc(CN3CCN(c4ccc(Cl)cc4)CC3)cc2N1 | > 3030 nM | 62.4 nM |  |  | 
Cc1ccc(C2CCN(Cc3ccc4c(c3)OCC(=O)N4)CC2)cc1C | 859 nM | 2.6 nM | 103% | 99% | 
O=C1COc2ccc(CN3CCN(c4ccccc4)CC3)cc2N1 | 839 nM | 18.3 nM |  |  | 
O=C1COc2cc(CN3CCN(c4ccccc4)CC3)ccc2N1 | 10.4 nM | 6.1 nM |  |  | 
COc1ccc(C2CCN(Cc3ccc4c(c3)OCC(=O)N4)CC2)cc1 | 428 nM | 6.7 nM |  |  | Change (Rattus norvegicus [5]): 132%; Change (Rattus norvegicus [6]): 126%
Cc1ccc(C2CCN(Cc3ccc4c(c3)NC(=O)CO4)CC2)cc1C | > 3030 nM | 1.8 nM |  |  | Change in DA synthesis (Rattus norvegicus [3]): 128%; Change in DA synthesis (Rattus norvegicus [4]): 104%
COc1ccc(N2CCN(Cc3ccc4c(c3)OCC(=O)N4)CC2)cc1 | 1790 nM | 5 nM | 122% | 104% | Ki (D(2) dopamine receptor): > 5880 nM
Cc1ccc(N2CCN(Cc3ccc4c(c3)OCC(=O)N4)CC2)cc1 | 208 nM |  | 133% | 140% | 
Cc1ccc(N2CCN(Cc3ccc4c(c3)NC(=O)CO4)CC2)cc1C | 864 nM |  | 122% | 126% | 
Cc1ccc(C2CCN(Cc3ccc4c(c3)OCC(=O)N4)CC2)cc1 | 232 nM | 2.6 nM |  |  | 
Cc1ccc(N2CCN(Cc3ccc4c(c3)OCC(=O)N4)CC2)cc1C | 78.5 nM |  |  |  | 
Cc1ccc(N2CCN(Cc3ccc4c(c3)NC(=O)CO4)CC2)cc1 | 2490 nM | 4.3 nM |  |  | Change (Rattus norvegicus [5]): 89%; Change (Rattus norvegicus [6]): 111%
O=C1COc2cc(CN3CCN(c4ccc(Cl)cc4)CC3)ccc2N1 | 679 nM | 4.3 nM | 146% | 110% | IC50 [7]: 1400 nM; Ki [7]: 792 nM; IC50 [8]: 2700 nM; Ki [8]: 1678 nM; IC50 [9]: 500 nM; Ki [9]: 203 nM; IC50 [10]: 1420 nM; Ki [10]: 787 nM; IC50 [11]: 1100 nM; Ki [11]: 411 nM; Ki (D(2) dopamine receptor): 413 nM; IC50 [12]: 1340 nM; Ki [12]: 964 nM; IC50 [13]: 375 nM; Ki [13]: 231 nM; IC50 [14]: 630 nM; Ki [14]: 368 nM
Cc1ccc(C2CCN(Cc3ccc4c(c3)NC(=O)CO4)CC2)cc1 | > 3030 nM | 2.8 nM |  |  | 
COc1ccc(N2CCN(Cc3ccc4c(c3)NC(=O)CO4)CC2)cc1 | > 3030 nM |  |  |  | Change (Rattus norvegicus [1]): 91%; Change (Rattus norvegicus [2]): 110%
